How the values were obtained:
[1] = target: T1, human EGFR (L858R/T790M/C797S) (Homo sapiens, UniProt P00533, C797S/L858R/T790M); assay: Inhibitory activity against EGFR (L858R/T790M/C797S) kinase; type: biochemical
T1 construct: made in house; host or cells: Sf9 insect cells, baculovirus
Procedure, shortened: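 GST-tagged cytoplasmic domain of human EGFR L858R/T790M/C797S, expressed in Sf9 insect cells via baculovirus and glutathione-purified. Kinase reaction run at 0.5 μM ATP final; IC50 (nM) determined per compound.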

[2] = target: T2, human EGFR (WT) (Homo sapiens, UniProt P00533); assay: Inhibitory activity against EGFR (WT) kinase; type: biochemical
T2 construct: purchased Carna Biosciences Inc., Japan
Procedure, shortened: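 Purified recombinant human wild-type EGFR kinase, with ATP at 1.5 μM final. Compound inhibition of kinase activity read out and fitted to give IC50 (nM).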

[3] = Test Example 1, Table 3, ATP 0.5 μM
[4] = Test Example 1, Table 6, ATP 1.5 μM

T1 sequence (P00533 with tags, fused parts or gaps T790M/C797S/L858R): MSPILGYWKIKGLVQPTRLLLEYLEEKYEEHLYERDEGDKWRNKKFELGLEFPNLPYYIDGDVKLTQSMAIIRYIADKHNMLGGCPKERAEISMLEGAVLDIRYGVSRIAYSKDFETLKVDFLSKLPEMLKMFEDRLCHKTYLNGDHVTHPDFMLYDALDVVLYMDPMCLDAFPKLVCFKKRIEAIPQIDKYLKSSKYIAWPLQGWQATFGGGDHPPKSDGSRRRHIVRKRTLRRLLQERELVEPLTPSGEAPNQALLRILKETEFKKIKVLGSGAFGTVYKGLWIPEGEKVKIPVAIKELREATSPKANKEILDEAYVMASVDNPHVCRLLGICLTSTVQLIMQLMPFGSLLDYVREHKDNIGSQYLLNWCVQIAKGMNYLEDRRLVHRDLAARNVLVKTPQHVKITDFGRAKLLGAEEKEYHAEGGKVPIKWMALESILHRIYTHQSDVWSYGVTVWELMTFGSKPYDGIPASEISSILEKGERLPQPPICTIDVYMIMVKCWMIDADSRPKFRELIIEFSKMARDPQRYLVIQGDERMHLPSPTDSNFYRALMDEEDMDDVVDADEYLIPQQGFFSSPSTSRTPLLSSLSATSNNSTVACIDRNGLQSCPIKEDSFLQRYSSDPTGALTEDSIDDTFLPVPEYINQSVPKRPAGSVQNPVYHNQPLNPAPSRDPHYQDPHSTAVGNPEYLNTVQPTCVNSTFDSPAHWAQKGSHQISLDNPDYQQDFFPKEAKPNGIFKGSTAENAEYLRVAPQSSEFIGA
T2 sequence (P00533 25-1210): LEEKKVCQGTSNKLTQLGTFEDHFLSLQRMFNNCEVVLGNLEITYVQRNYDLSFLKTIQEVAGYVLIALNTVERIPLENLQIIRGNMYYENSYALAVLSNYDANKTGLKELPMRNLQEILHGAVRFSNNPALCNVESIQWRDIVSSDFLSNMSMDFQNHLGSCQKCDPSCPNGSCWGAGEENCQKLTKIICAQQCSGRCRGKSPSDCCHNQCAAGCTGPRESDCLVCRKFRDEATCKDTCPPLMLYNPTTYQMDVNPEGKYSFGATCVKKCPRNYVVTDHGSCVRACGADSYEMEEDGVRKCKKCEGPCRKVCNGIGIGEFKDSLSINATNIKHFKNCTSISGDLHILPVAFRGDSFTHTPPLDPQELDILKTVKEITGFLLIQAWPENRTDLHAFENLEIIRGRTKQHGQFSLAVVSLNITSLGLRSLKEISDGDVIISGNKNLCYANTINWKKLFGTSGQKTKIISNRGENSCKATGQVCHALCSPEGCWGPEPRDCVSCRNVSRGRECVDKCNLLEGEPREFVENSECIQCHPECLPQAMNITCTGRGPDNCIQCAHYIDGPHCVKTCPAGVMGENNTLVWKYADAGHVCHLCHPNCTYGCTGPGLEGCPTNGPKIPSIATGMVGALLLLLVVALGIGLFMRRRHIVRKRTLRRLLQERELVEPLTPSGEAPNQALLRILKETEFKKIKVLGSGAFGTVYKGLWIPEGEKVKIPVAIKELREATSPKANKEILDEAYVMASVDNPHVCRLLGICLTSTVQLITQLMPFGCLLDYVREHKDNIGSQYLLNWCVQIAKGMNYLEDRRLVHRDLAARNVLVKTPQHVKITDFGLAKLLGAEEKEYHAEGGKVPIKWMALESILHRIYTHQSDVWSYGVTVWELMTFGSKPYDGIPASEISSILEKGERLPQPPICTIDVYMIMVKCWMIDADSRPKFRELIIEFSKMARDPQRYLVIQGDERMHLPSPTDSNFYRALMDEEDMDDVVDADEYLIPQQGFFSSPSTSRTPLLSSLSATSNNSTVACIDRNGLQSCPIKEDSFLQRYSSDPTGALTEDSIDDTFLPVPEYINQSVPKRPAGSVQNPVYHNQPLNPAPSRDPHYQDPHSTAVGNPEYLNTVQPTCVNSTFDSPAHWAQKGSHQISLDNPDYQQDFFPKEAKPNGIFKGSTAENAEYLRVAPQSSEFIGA

Row | SMILES | IC50 [1, 3] | IC50 [2, 4] | IC50 ([1]; Test Example 3, Table 9; same procedures as 2) in Test Example 1) | IC50 ([2]; Test Example 3, Table 12; same procedures as 5) in Test Example 1)
1 | C=CC(=O)N1CC[C@@H](n2cc(-c3cnc4ccccc4c3)c3c(N)ncnc32)C1 [Comparative Example A, (R)-1-(3(4-Amino-5-(quinolin-3-yl)-7H-pyrrolo[2,3-d]pyrimidin-7-yl)pyrrolidin-1-yl) -prop-2-en-1-one, reference compound] | 102 nM | 1.6 nM |  | 
2 | C#Cc1c(-c2cnc3ccccc3c2)c2c(N)ncnc2n1C12CCC(NC(=O)c3ccccc3)(CC1)C2 [Example 1, N-(4-(4-Amino-6-ethynyl-5-(quinolin-3-yl)-7H-pyrrolo[2,3-d]pyrimidin-7-yl)bicyclo-[2.2.1]heptan-1-yl)benzamide] | 0.46 nM | 2.1 nM |  | 
3 | C#Cc1c(-c2cnc3ccccc3c2)c2c(N)ncnc2n1C12CCC(NC(=O)c3cncnc3)(CC1)C2 [Example 2, N-(4-(4-Amino-6-ethynyl-5-(quinolin-3-yl)-7H-pyrrolo[2,3-d]pyrimidin-7-yl)bicyclo-[2.2.1]heptan-1-yl)pyrimidine-5-carboxamide] | < 0.3 nM | 0.52 nM |  | 
4 | C#Cc1c(-c2cnc3ccccc3c2)c2c(N)ncnc2n1C12CCC(CNC(=O)c3ccnn3C)(CC1)C2 [Example 13, N-((4-(4-Amino-6-ethynyl-5-(quinolin-3-yl)-7H-pyrrolo[2,3-d]pyrimidin-7-yl)bicyclo-[2.2.1]heptan-1-yl)methyl)-1-methyl-1H-pyrazole-5-carboxamide] |  | 0.61 nM |  | 
5 | C#Cc1c(-c2cnc3ccccc3c2)c2c(N)ncnc2n1C12CCC(CNC(=O)c3cnc(C)cn3)(CC1)C2 [Example 14, N-((4-(4-Amino-6-ethynyl-5-(quinolin-3-yl)-7H-pyrrolo[2,3-d]pyrimidin-7-yl)bicyclo-[2.2.1]heptan-1-yl)methyl)-5-methylpyrazine-2-carboxamide] |  | 1.7 nM |  | 
6 | C#Cc1c(-c2cnc3ccccc3c2)c2c(N)ncnc2n1C12CCC(NC(=O)c3cnns3)(CC1)C2 [Example 18, N-(4-(4-Amino-6-ethynyl-5-(quinolin-3-yl)-7H-pyrrolo[2,3-d]pyrimidin-7-yl)bicyclo-[2.2.1]heptan-1-yl)-1,2,3-thiadiazole-5-carboxamide] | 0.42 nM | 1.4 nM |  | 
7 | C#Cc1c(-c2cnc3ccccc3c2)c2c(N)ncnc2n1C12CCC(NC(=O)c3ccnn3C3CC3)(CC1)C2 [Example 20, N-(4-(4-Amino-6-ethynyl-5-(quinolin-3-yl)-7H-pyrrolo[2,3-d]pyrimidin-7-yl)bicyclo-[2.2.1]heptan-1-yl)-1-cyclopropyl-1H-pyrazole-5-carboxamide] | 0.44 nM | 2.1 nM |  | 
8 | C#Cc1c(-c2cnc3ccccc3c2)c2c(N)ncnc2n1C12CCC(NC(=O)c3nccn3C)(CC1)C2 [Example 23, N-(4-(4-Amino-6-ethynyl-5-(quinolin-3-yl)-7H-pyrrolo[2,3-d]pyrimidin-7-yl)bicyclo-[2.2.1]heptan-1-yl)-1-methyl-1H-imidazole-2-carboxamide] | 0.42 nM | 1.4 nM |  | 
9 | C#Cc1c(-c2cnc3ccccc3c2)c2c(N)ncnc2n1C12CCC(NC(=O)c3cncc(F)c3)(CC1)C2 [Example 35, N-(4-(4-Amino-6-ethynyl-5-(quinolin-3-yl)-7H-pyrrolo[2,3-d]pyrimidin-7-yl)-bicyclo-[2.2.1]heptan-1-yl)-5-fluoronicotinamide] | 0.5 nM | 1.3 nM |  | 
10 | C#Cc1c(-c2cnc3ccccc3c2)c2c(N)ncnc2n1C12CCC(NC(=O)c3cnc(C)cn3)(CC1)C2 [Example 37, N-(4-(4-Amino-6-ethynyl-5-(quinolin-3-yl)-7H-pyrrolo[2,3-d]pyrimidin-7-yl)-bicyclo-[2.2.1]heptan-1-yl)-5-methylpyrazine-2-carboxamide] | 0.52 nM | 0.92 nM |  | 
11 | C#Cc1c(-c2cnc3ccccc3c2)c2c(N)ncnc2n1C12CCC(NC(=O)c3ccno3)(CC1)C2 [Example 44] | 0.32 nM | 0.8 nM |  | 
12 | C#Cc1c(-c2cnc3ccccc3c2)c2c(N)ncnc2n1C12CCC(NC(=O)c3ncco3)(CC1)C2 [Example 46] | 0.41 nM | 0.79 nM |  | 
13 | C#Cc1c(-c2cnc3ccccc3c2)c2c(N)ncnc2n1C12CCC(NC(=O)c3cnccn3)(CC1)C2 [Example 48] | < 0.3 nM | 0.75 nM |  | 

Second part, the molecule after the results:

Row | IC50 [1, 3] | IC50 [2, 4] | IC50 ([1]; Test Example 3, Table 9; same procedures as 2) in Test Example 1) | IC50 ([2]; Test Example 3, Table 12; same procedures as 5) in Test Example 1) | SMILES
14 | 43 nM | 0.95 nM |  |  | C#Cc1c(-c2cnc3ccccc3c2)c2c(N)ncnc2n1[C@@H]1CCN(C(=O)C=C)C1 [Comparative Example B, (R)-1-(3-(4-Amino-6-ethynyl-5-(quinolin-3-yl)-7H-pyrrolo[2,3-d]pyrimidin-7-yl) -pyrrolidin-1-yl)-prop-2-en-1-one, reference compound]
15 | < 0.3 nM | 0.45 nM |  |  | C#Cc1c(-c2cnc3ccccc3c2)c2c(N)ncnc2n1C12CCC(NC(=O)c3ccnnc3)(CC1)C2 [Example 3, N-(4-(4-Amino-6-ethynyl-5-(quinolin-3-yl)-7H-pyrrolo[2,3-d]pyrimidin-7-yl)bicyclo-[2.2.1]heptan-1-yl)pyridazine-4-carboxamide]
16 |  | 2.6 nM |  |  | C#Cc1c(-c2cnc3ccccc3c2)c2c(N)ncnc2n1C12CCC(N3CCOCC3)(CC1)C2 [Example 9, 6-Ethynyl-7-(4-morpholinobicyclo[2.2.1]heptan-1-yl)-5-(quinolin-3-yl)-7H-pyrrolo[2,3-d]pyrimidine-4-amine]
17 | 0.36 nM | 0.53 nM |  |  | C#Cc1c(-c2cnc3ccccc3c2)c2c(N)ncnc2n1C12CCC(NC(=O)c3ccc4ncnn4c3)(CC1)C2 [Example 16, N-(4-(4-Amino-6-ethynyl-5-(quinolin-3-yl)-7H-pyrrolo[2,3-d]pyrimidin-7-yl)bicyclo-[2.2.1]heptan-1-yl)-[1.2.4]triazolo[1,5-a]pyrimidin-6-carboxamide]
18 | < 0.3 nM | 0.73 nM |  |  | C#Cc1c(-c2cnc3ccccc3c2)c2c(N)ncnc2n1C12CCC(NC(=O)c3ccnn3C)(CC1)C2 [Example 24, N-(4-(4-Amino-6-ethynyl-5-(quinolin-3-yl)-7H-pyrrolo[2,3-d]pyrimidin-7-yl)bicyclo-[2.2.1]heptan-1-yl)-1-methyl-1H-pyrazole-5-carboxamide]
19 | 0.47 nM | 2.4 nM |  |  | C#Cc1c(-c2cnc3ccccc3c2)c2c(N)ncnc2n1C12CCC(NC(=O)C(F)F)(CC1)C2 [Example 27, N-(4-(4-Amino-6-ethynyl-5-(quinolin-3-yl)-7H-pyrrolo[2,3-d]pyrimidin-7-yl)bicyclo-[2.2.1]heptan-1-yl)-2,2-difluoroacetamide]
20 | 0.56 nM | 2.6 nM |  |  | C#Cc1c(-c2cnc3ccccc3c2)c2c(N)ncnc2n1C12CCC(NC(=O)c3noc(C)n3)(CC1)C2 [Example 36, N-(4-(4-Amino-6-ethynyl-5-(quinolin-3-yl)-7H-pyrrolo[2,3-d]pyrimidin-7-yl)-bicyclo-[2.2.1]heptan-1-yl)-5-methyl-1,2,4-oxadiazole-3-carboxamide]
21 | 0.36 nM | 1.5 nM |  |  | C#Cc1c(-c2cnc3ccccc3c2)c2c(N)ncnc2n1C12CCC(NC(C)=O)(CC1)C2 [Example 39, N-(4-(4-Amino-6-ethynyl-5-(quinolin-3-yl)-7H-pyrrolo[2,3-d]pyrimidin-7-yl)-bicyclo-[2.2.1]heptan-1-yl)acetamide]
22 | 0.39 nM | 2.1 nM |  |  | C#Cc1c(-c2cnc3ccccc3c2)c2c(N)ncnc2n1C12CCC(NC(=O)c3ccco3)(CC1)C2 [Example 41]
23 |  | 1.7 nM |  |  | C#Cc1c(-c2cnc3ccccc3c2)c2c(N)ncnc2n1C12CCC(NC(=O)c3ccncc3)(CC1)C2 [Example 43]
24 |  | 1.9 nM |  |  | C#Cc1c(-c2cnc3ccccc3c2)c2c(N)ncnc2n1C12CCC(NC(=O)c3cccnc3)(CC1)C2 [Example 45]
25 | 0.47 nM | 0.86 nM |  |  | C#Cc1c(-c2cnc3ccccc3c2)c2c(N)ncnc2n1C12CCC(NC(=O)c3cccnn3)(CC1)C2 [Example 49]
26 | 0.69 nM | 1.9 nM |  |  | C#Cc1c(-c2cnc3ccccc3c2)c2c(N)ncnc2n1C12CCC(NC(=O)c3nccs3)(CC1)C2 [Example 53]
27 |  |  | < 0.3 nM | 2.8 nM | C#Cc1c(-c2cnc3ccccc3c2)c2c(N)ncnc2n1C12CCC(NC(=O)[C@@H]3CN(C)CCO3)(CC1)C2 [Example 63, (S)-N-(4-(4-Amino-6-ethynyl-5-(quinolin-3-yl)-7H-pyrrolo[2,3-d]pyrimidin-7-yl) -bicyclo[2.2.1]heptan-1-yl)-4-methylmorpholine-2-carboxamide]

Reference: patent US11786534B2 (TAIHO PHARMACEUTICAL CO., LTD., priority 2019, dated 2023)
